Among the data in US8067589B2, “Heterocyclic compounds useful in treating diseases and conditions” (Pfizer Inc, priority 2007, dated 2011) are IC50 values, retold here.

Bounds are passed on as bounds.

The first experiment deals with human recombinant H-PGDS (Homo sapiens, UniProt O60760). The experiment can be described thus: Fluoresecence Intensity h-PGDSTBA Enzyme Assay. Particulars: 5.0 μM PGH2, 2.5 mM L-Glutathione, 10 min preincubation, 4-parameter fit, highest inhibitor concentration typically 1 μM.
Sequence of human recombinant H-PGDS (O60760 whole entry): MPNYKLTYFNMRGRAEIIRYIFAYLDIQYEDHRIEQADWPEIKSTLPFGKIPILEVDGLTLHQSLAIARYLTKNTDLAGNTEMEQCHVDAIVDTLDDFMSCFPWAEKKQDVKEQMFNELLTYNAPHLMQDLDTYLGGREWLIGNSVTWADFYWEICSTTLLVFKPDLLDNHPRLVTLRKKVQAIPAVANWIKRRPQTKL
Broadly, the IC50 is the concentration that gives 50% inhibition. For the compound “2-Phenyl-N-[1-(2,2,2- trifluoroethyl) piperidin-4-yl] pyrimidine-5- carboxamide [Example 9]”, the half-maximal inhibitory concentration (IC50) stood at 0.275 nM.

The same experiment, now with this note: IC50, 5.0 μM PGH2, 2.5 mM L-Glutathione, 10 min preincubation, 4-parameter fit, highest inhibitor concentration typically 1 μM.
For the compound `CC(C)(C)OC(=O)N1C[C@H](O)[C@H](NC(=O)c2cnc(-c3cccc(F)c3)nc2)C1` (relative stereo) [Example 94, cis-tert-Butyl 3-(2-(3-fluorophenyl)pyrimidine-5-carboxamido)-4-hydroxypyrrolidine-1-carboxylate], the half-inhibitory concentration (IC50) was found to be 1.41 nM.

Regarding `N#Cc1ccccc1C(=O)c1cccnc1N1C[C@H](O)[C@H](NC(=O)c2cnc(-c3cccc(F)c3)nc2)C1` (relative stereo) [Example 97, Cis-N-{1-[3-(2-Cyanobenzoyl)pyridin-2-yl]-4-hydroxypyrrolidin-3-yl}-2-(3-fluorophenyl)pyrimidine-5-carboxamide], the IC50 is 3.83 nM.

With `O=C(N[C@@H]1CN(c2ncccn2)C[C@@H]1O)c1cnc(-c2cccc(F)c2)nc1` (relative stereo) [Example 98, Cis-2-(3-Fluorophenyl)-N-[4-hydroxy-1-pyrimidin-2-ylpyrrolidin-3-yl]pyrimidine-5-carboxamide], the IC50 was determined as 1.82 nM.

Regarding `NC(=O)c1cccnc1N1C[C@H](O)[C@H](NC(=O)c2cnc(-c3cccc(F)c3)nc2)C1` (relative stereo) [Example 99, Cis-N-{1-[3-(Aminocarbonyl)pyridin-2-yl]-4-hydroxypyrrolidin-3-yl}-2-(3-fluorophenyl)pyrimidine-5-carboxamide], the 50% inhibitory concentration (IC50) came to 2.65 nM.

On to `N#Cc1ccc(C(F)(F)F)nc1N1C[C@H](O)[C@H](NC(=O)c2cnc(-c3cccc(F)c3)nc2)C1` (relative stereo) [Example 100, Cis-N-{1-[3-Cyano-6-(trifluoromethyl)pyridin-2-yl]-4-hydroxypyrrolidin-3-yl}-2-(3-fluorophenyl)pyrimidine-5-carboxamide], for which the half-inhibitory concentration (IC50) was 4.47 nM.

Turning to `O=C(NC1CCN(c2ncc3c(n2)CCOC3)C1)c1cnc(-c2cccc(F)c2)nc1` (single isomer, unassigned) [Example 81a, N-(1-(7,8-Dihydro-5H-pyrano[4,3-d]pyrimidin-2-yl)pyrrolidin-3-yl)-2-(3-fluorophenyl)pyrimidine-5-carboxamide], the IC50 was 0.27 nM.

Consider `O=C(NC1CCN(c2ncc3c(n2)CCOC3)C1)c1cnc(-c2cccc(F)c2)nc1` (single isomer, unassigned) [Example 81b, N-(1-(7,8-Dihydro-5H-pyrano[4,3-d]pyrimidin-2-yl)pyrrolidin-3-yl)-2-(3-fluorophenyl)pyrimidine-5-carboxamide], for which the half-maximal inhibitory concentration (IC50) was determined as 0.46 nM.

`CCOC(=O)N1CCC(NC(=O)c2cnc(-c3cccc(F)c3)nc2)C1` (single isomer, unassigned) [Example 82a, Ethyl 3-(2-(3-fluorophenyl)pyrimidine-5-carboxamido)pyrrolidine-1-carboxylate]: the IC50 was 1.92 nM.

`CCOC(=O)N1CCC(NC(=O)c2cnc(-c3cccc(F)c3)nc2)C1` (single isomer, unassigned) [Example 82b, Ethyl 3-(2-(3-fluorophenyl)pyrimidine-5-carboxamido)pyrrolidine-1-carboxylate]: the IC50 worked out at 0.58 nM.

In the case of `Cc1nc(-c2ccccc2)ncc1C(=O)NC1CCN(C(C)C)CC1` [Example 1, N-(1-Isopropylpiperidin-4-yl)-4-methyl-2-phenylpyrimidine-5-carboxamide], the 50% inhibitory concentration (IC50) is 162 nM.

On to `Cc1nc(-c2ccccc2)ncc1C(=O)NC1CCN(Cc2ccccc2)CC1` [Example 2, N-(1-Benzylpiperidin-4-yl)-4-methyl-2-phenylpyrimidine-5-carboxamide], for which the IC50 worked out at 67.4 nM.

On to `Cc1nc(-c2ccccc2)ncc1C(=O)NC1CCN(Cc2ccccn2)CC1` [Example 3, 4-Methyl-2-phenyl-N-[1-(pyridin-2-ylmethyl)piperidin-4-yl]pyrimidine-5-carboxamide], for which the 50% inhibitory concentration (IC50) came to 14.1 nM.

Take `Cc1nc(-c2ccccc2)ncc1C(=O)NC1CCN(C)CC1` [Example 4, 4-Methyl-N-(1-methylpiperid-4-yl)-2-phenylpyrimidine-5-carboxamide]: the IC50 was 302 nM.

Take `CCCC(=O)N1CCC(NC(=O)c2cnc(-c3ccccc3)nc2C)CC1` [Example 5, N-(1-Butyrylpiperidin-4-yl)-4-methyl-2-phenylpyrimidine-5-carboxamide]: the concentration for half-maximal inhibition (IC50) was determined as 8.02 nM.

In the case of `CCOC(=O)N1CCC(NC(=O)c2cnc(-c3ccccc3)nc2C)CC1` [Example 6, Ethyl 4-{[(4-methyl-2-phenylpyrimidin-5-yl)carbonyl]amino)} piperidine-1-carboxylate], the IC50 is 6.54 nM.

With `Cc1nc(-c2ccccc2)ncc1C(=O)NC1CCN(CC2CCOCC2)CC1` [Example 7, 4-Methyl-2-phenyl-N-[1-(tetrahydro-2H-pyran-4-ylmethyl)piperidin-4-yl] pyrimidine-5-carboxamide], the IC50 worked out at 30.4 nM.

Regarding `O=C(NC1CCN(Cc2ccccn2)CC1)c1cnc(-c2ccccc2)nc1` [Example 8, 2-Phenyl-N-[1-(pyridin-2-ylmethyl)piperidin-4-yl] pyrimidine-5-carboxamide], the half-maximal inhibitory concentration (IC50) turned out to be 0.461 nM.

As to `CCCN1CCC(NC(=O)c2cnc(-c3ccccc3)nc2)CC1` [Example 10, 2-Phenyl-N-(1-propylpiperidin-4-yl) pyrimidine-5-carboxamide], the half-maximal inhibitory concentration (IC50) was 2 nM.

For `CC(C)CN1CCC(NC(=O)c2cnc(-c3ccccc3)nc2)CC1` [Example 11, N-(1-Isobutylpiperidin-4-yl)-2-phenyl-pyrimidine-5-carboxamide], the 50% inhibitory concentration (IC50) was found to be 0.381 nM.

Consider `O=C(NC1CCN(Cc2ccccc2)CC1)c1cnc(-c2ccccc2)nc1` [Example 12, N-(1-Benzylpiperidin-4-yl)-2-phenylpyrimidine-5-carboxamide], for which the half-inhibitory concentration (IC50) came to 0.428 nM.

In the case of `CC(C)N1CCC(NC(=O)c2cnc(-c3ccccc3)nc2)CC1` [Example 13, N-(1-Isopropylpiperidin-4-yl)-2-phenyl-pyrimidine-5-carboxamide], the half-maximal inhibitory concentration (IC50) was 6.34 nM.

Consider `COc1cccc(OC)c1CN1CCC(NC(=O)c2cnc(-c3ccccc3)nc2)CC1` [Example 14, N-[1-(2,6-Dimethoxybenzyl)piperidin-4-yl]-2-phenylpyrimidine-5-carboxamide], for which the half-inhibitory concentration (IC50) came out at 0.483 nM.

In the case of `CC(C)CN1CCC(NC(=O)c2cnc(-c3ccccc3)nc2N)CC1` [Example 15, 4-Amino-N-(1-isobutylpiperidin-4-yl)-2-phenyl-pyrimidine-5-carboxamide], the IC50 was no less than 1000 nM.

As for `CC(C)N1CCC(NC(=O)c2cnc(-c3ccccc3)nc2N)CC1` [Example 16, 4-Amino-N-(1-isopropylpiperidin-4-yl)-2-phenyl-pyrimidine-5-carboxamide], the concentration for half-maximal inhibition (IC50) stood at 219 nM.

Turning to `COc1cccc(OC)c1CN1CCC(NC(=O)c2cnc(-c3ccccc3)nc2N)CC1` [Example 17, 4-Amino-N-[1-(2,6-dimethoxybenzyl)piperidin-4-yl]-2-phenylpyrimidine-5-carboxamide], the 50% inhibitory concentration (IC50) came to 19.3 nM.

For `Nc1nc(-c2ccccc2)ncc1C(=O)NC1CCN(Cc2ccccn2)CC1` [Example 18, 4-Amino-2-phenyl-N-[1-(pyridin-2-ylmethyl)piperidin-4-yl]pyrimidine-5-carboxamide], the concentration for half-maximal inhibition (IC50) came out at 16.4 nM.

Consider `O=C(NC1CCN(Cc2ccccc2)CC1)c1cnc(-c2ccccc2)nc1O` [Example 19, N-(1-Benzylpiperidin-4-yl)-4-hydroxy-2-phenylpyrimidine-5-carboxamide], for which the IC50 is no less than 1000 nM.
